The values that follow come from ChEMBL document CHEMBL1201862, “PubChem BioAssay data set” (2004).

Among the test systems are DU-145; RXF 393; MOLT-4; SW-620; IGROV-1; SF-268; SK-MEL-5; T47D; MCF7; HOP-92; HCC 2998; SK-MEL-28; NCI-H226; SNB-19; A498; Hs-578T; EKVX; OVCAR-5; SNB-75; A549.
Common to all, as to assay: inhibition of tumour cell growth, NCI panel, 48 h

SMILES strings stand for the structures.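 Tested at 5 concentrations; 48 h exposure; 96-well plates; endpoints linearly interpolated, else capped at highest concentration. GI50: concentration for 50% inhibition of growth.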 Calls of active or inactive are those of the source. Rule as the data show it: active = GI50 up to about 1.1 µM and inactive = higher.

`COc1c(O)ccc(C2=Cc3ccc(O)cc3OC2)c1OC`: the GI50 with DU-145 was 26.7 µM (inactive); with RXF 393 it was 18.7 µM (inactive); in the assay with MOLT-4, 6.82 µM (inactive); in the assay with SW-620, 26.7 µM (inactive); with IGROV-1, 25.8 µM (inactive); in the assay with SF-268 it was 20.2 µM (inactive). In addition, the GI50 in the assay on SK-MEL-5 was 16.1 µM (inactive); in the assay on T47D it was 25.6 µM (inactive); in the assay with MCF7, 32.4 µM (inactive); with HOP-92 it was 24 µM (inactive); in the assay with HCC 2998 it was 21 µM (inactive); in the assay on SK-MEL-28, 34.3 µM (inactive). Moreover, the GI50 in the assay on NCI-H226 was 23.4 µM (inactive); in the assay on SNB-19 it was 55.3 µM (inactive); with A498 it was 27.9 µM (inactive); with Hs-578T, 19.5 µM (inactive); in the assay on EKVX, 15.1 µM (inactive); in the assay with OVCAR-5, 30.1 µM (inactive). In addition, the GI50 is 14.9 µM (inactive) with SNB-75 and 24.8 µM (inactive) in the assay with A549.
As to `O=C(O)c1nn(-c2ccccc2-c2nnc(O)nc2O)c(=O)[nH]c1=O`, the GI50 in the assay with DU-145 was > 100 µM (inactive); in the assay with RXF 393 it was > 100 µM (inactive); in the assay with MOLT-4, 4.73 µM (inactive); in the assay on SW-620, > 100 µM (inactive); in the assay on IGROV-1, > 100 µM (inactive); with SF-268, > 100 µM (inactive). In addition, the GI50 in the assay with SK-MEL-5, with T47D, in the assay on MCF7, in the assay with HOP-92, with HCC 2998 and in the assay on SK-MEL-28 was > 100 µM (inactive) throughout. In addition, the GI50 with NCI-H226, in the assay with SNB-19, in the assay on A498, in the assay on Hs-578T, with EKVX and in the assay on OVCAR-5 was > 100 µM (inactive) throughout. Besides, the GI50 in the assay on SNB-75 and in the assay with A549 was > 100 µM (inactive) throughout.
Turning to `Cc1ccc(S(=O)(=O)n2c3c(c4ccccc42)CCN2CCC(Br)C[C@@H]32)cc1` (stereo partly drawn), the GI50 in the assay with DU-145 was 15.1 µM (inactive); in the assay on RXF 393, 12.9 µM (inactive); in the assay on MOLT-4 it was 9.73 µM (inactive); in the assay with SW-620, 12.8 µM (inactive); in the assay with IGROV-1 it was 10.1 µM (inactive); with SF-268, 16.1 µM (inactive). Further, the GI50 was 7.74 µM (inactive) in the assay on SK-MEL-5; 6.11 µM (inactive) in the assay with T47D; 9.42 µM (inactive) with MCF7; 18.1 µM (inactive) with HOP-92; 15 µM (inactive) with HCC 2998; 11.9 µM (inactive) in the assay with SK-MEL-28. Also, the GI50 in the assay with NCI-H226 is 13.4 µM (inactive); with SNB-19, 15.4 µM (inactive); in the assay on A498 it was 22.6 µM (inactive); in the assay with Hs-578T, 13.7 µM (inactive); in the assay on EKVX, 19.1 µM (inactive); with OVCAR-5, 17.3 µM (inactive). Moreover, the GI50 in the assay on SNB-75 was 12.2 µM (inactive); in the assay on A549, 16.7 µM (inactive).
`CC1(C)NC2C(=O)c3c([nH]c4ccccc34)[C@]3(C)CCC1CC23` (stereo partly drawn): the GI50 in the assay on DU-145 is > 100 µM (inactive); with RXF 393 it was > 100 µM (inactive); with MOLT-4, 59.4 µM (inactive); in the assay on SW-620, > 100 µM (inactive); in the assay with IGROV-1, > 100 µM (inactive); in the assay on SF-268 it was > 100 µM (inactive). For the same compound, the GI50 in the assay with SK-MEL-5 is > 100 µM (inactive); in the assay with T47D it was 21.6 µM (inactive); in the assay on MCF7 it was > 100 µM (inactive); in the assay on HOP-92 it was 61.7 µM (inactive); with HCC 2998, > 100 µM (inactive); in the assay with SK-MEL-28 it was > 100 µM (inactive). Further, the GI50 with NCI-H226, in the assay with A498, with Hs-578T, in the assay with EKVX, in the assay on OVCAR-5 and in the assay with SNB-75 was > 100 µM (inactive) in each case. Further, in the assay on A549, the GI50 was > 100 µM (inactive).
For `Cc1cc(N(CCOS(C)(=O)=O)CCOS(C)(=O)=O)ccc1/C=N/c1ccc(-c2nc(Cc3ccccc3)sc2C)cc1`, the GI50 with DU-145 was 0.834 µM (active); in the assay with RXF 393 it was 0.933 µM (active); in the assay on MOLT-4 it was 1.23 µM (inactive); with SW-620, 8.57 µM (inactive); in the assay on IGROV-1, 10.7 µM (inactive); with SF-268 it was 3.99 µM (inactive). The GI50 in the assay with SK-MEL-5 is 9.68 µM (inactive); in the assay on T47D, 2.03 µM (inactive); in the assay with MCF7, 3.52 µM (inactive); in the assay with HOP-92 it was 8.71 µM (inactive); in the assay on HCC 2998, 3.77 µM (inactive); in the assay on SK-MEL-28, 14.2 µM (inactive). For the same compound, the GI50 in the assay on NCI-H226 is 2.2 µM (inactive); in the assay with SNB-19, 8.3 µM (inactive); in the assay on A498 it was 1.55 µM (inactive); in the assay with Hs-578T it was 10.6 µM (inactive); with EKVX it was 4.27 µM (inactive); in the assay on OVCAR-5, 11.2 µM (inactive). For the same compound, the GI50 in the assay with SNB-75 is 1.66 µM (inactive); with A549, 1.33 µM (inactive).
Regarding `O=C(NC(=O)c1cc(-c2ccccc2)n[nH]1)c1ccccc1`, the GI50 in the assay with DU-145, with RXF 393, in the assay on MOLT-4, in the assay on SW-620, in the assay on IGROV-1 and with SF-268 was > 100 µM (inactive) each time. The GI50 in the assay on SK-MEL-5, in the assay with T47D, in the assay on MCF7, in the assay with HOP-92, with HCC 2998 and with SK-MEL-28 was > 100 µM (inactive) in each case. The GI50 is > 100 µM (inactive) with NCI-H226; > 100 µM (inactive) in the assay with A498; > 100 µM (inactive) with Hs-578T; > 100 µM (inactive) in the assay with EKVX; > 100 µM (inactive) in the assay with OVCAR-5; 26.5 µM (inactive) in the assay with SNB-75. For the same compound, the GI50 in the assay on A549 is > 100 µM (inactive).
Turning to `CO/C(N)=C(C#N)/N=C/c1ccco1`, the GI50 in the assay on DU-145, in the assay with RXF 393, with MOLT-4, in the assay on SW-620, in the assay on IGROV-1 and in the assay on SF-268 was > 100 µM (inactive) in each case. Besides, the GI50 with SK-MEL-5, in the assay on T47D, in the assay with MCF7, in the assay on HOP-92, with HCC 2998 and in the assay on SK-MEL-28 was > 100 µM (inactive) each time. The GI50 in the assay with NCI-H226, in the assay with A498, in the assay with Hs-578T, in the assay on EKVX, in the assay on OVCAR-5 and in the assay with SNB-75 was > 100 µM (inactive) each time. In addition, the GI50 in the assay on A549 was > 100 µM (inactive).
Turning to `COc1ccc(C2C(C#N)=C(S)N(C3OC(COC(C)=O)C(OC(C)=O)C(OC(C)=O)C3OC(C)=O)C(c3ccccc3)=C2C(C)=O)cc1` (stereo not drawn), the GI50 was > 100 µM (inactive) with DU-145; 78.9 µM (inactive) in the assay with RXF 393; 64.4 µM (inactive) in the assay on MOLT-4; > 100 µM (inactive) in the assay on IGROV-1; > 100 µM (inactive) in the assay with SF-268; 53.7 µM (inactive) in the assay on SK-MEL-5. In addition, the GI50 in the assay with T47D is 17.3 µM (inactive); with MCF7 it was 63 µM (inactive); with HOP-92, > 100 µM (inactive); in the assay on HCC 2998, > 100 µM (inactive); with SK-MEL-28, > 100 µM (inactive); with NCI-H226, > 100 µM (inactive). Further, the GI50 in the assay on SNB-19 is > 100 µM (inactive); in the assay with A498 it was > 100 µM (inactive); with Hs-578T it was 70.8 µM (inactive); in the assay on OVCAR-5, > 100 µM (inactive); with SNB-75 it was 18.7 µM (inactive); in the assay with A549 it was > 100 µM (inactive).
`CCSc1cc(=O)n(C)c(=O)n1C`: the GI50 with DU-145, with RXF 393, in the assay with MOLT-4, in the assay with SW-620, in the assay on SF-268 and in the assay with SK-MEL-5 was > 100 µM (inactive) in each case. Besides, the GI50 with T47D, in the assay with MCF7, in the assay on HOP-92, in the assay with HCC 2998, with SK-MEL-28 and with NCI-H226 was > 100 µM (inactive) throughout. In addition, the GI50 with SNB-19 was > 100 µM (inactive); in the assay on A498, > 100 µM (inactive); in the assay with Hs-578T it was > 100 µM (inactive); in the assay with EKVX it was > 100 µM (inactive); in the assay with OVCAR-5 it was > 100 µM (inactive); with SNB-75 it was 42.7 µM (inactive). Also, the GI50 with A549 is > 100 µM (inactive).
As to `Nc1ncnc2c1ccn2C/C=C\CO`, the GI50 in the assay with DU-145 is > 100 µM (inactive); in the assay on RXF 393, > 100 µM (inactive); with MOLT-4, 85.9 µM (inactive); in the assay with SW-620 it was > 100 µM (inactive); in the assay with IGROV-1 it was > 100 µM (inactive); in the assay with SF-268, > 100 µM (inactive). The GI50 with SK-MEL-5, with T47D, in the assay with MCF7, in the assay on HOP-92, in the assay on HCC 2998 and in the assay on SK-MEL-28 was > 100 µM (inactive) throughout. The GI50 with SNB-19, in the assay with A498, with Hs-578T, in the assay on EKVX, with OVCAR-5 and with SNB-75 was > 100 µM (inactive) throughout. Further, the GI50 in the assay on A549 was > 100 µM (inactive).
